We go through 48 molecules from paper PMC5698418 (Nature Communications, 2017).

This assay has as its system BDNF-induced nuclear Arc expression in primary cortical neurons. The assay is described as follows: Chemogenomic screen: high-content image-based assay of BDNF-induced nuclear Arc expression (96-well). It is filed as cell-based, mouse. The conditions noted are these: for Fold-change — Normalized to DMSO control (BDNF): nuclear Arc-positive cells relative to DMSO + BDNF control, negative values = decrease. As to the method: To increase the throughput of our pharmacological screening for modulators of Arc, the above mentioned assay was adapted to cultures of mouse primary cortical neurons in 96-well plates.
All 319 compounds were initially tested at a final concentration of 16.7 µM with three biological replicates.
Screening of compounds in the chemogenomic library was carried out using DIV13 primary forebrain cortical neurons cultured on poly-L-lysine/laminin-coated 96-well plates (Ibidi USA, Madison, WI). Cells were seeded at a density of 30,000 cells per well and treated with the compound library and BDNF according to the experimental design presented in Fig. 3a. After experimental treatment, cells were processed for Arc and acetyl-H3K9 immunocytochemistry according to the protocol described above. Both antigens (Arc and acetyl-H3K9) were imaged using an IN Cell Analyzer 6000 imaging system and a ×40 objective. […] High-throughput quantification of nuclear Arc immunofluorescence signal was performed in a similar fashion than the low-throughput procedure described above but with the exception that acetyl-H3K9 was used as a nuclear mask to guide the automated quantification of nuclear Arc immunofluorescence signal.

Setting [1] is: chemogenomic (SMART) screen, BDNF-induced nuclear Arc expression, primary cortical neurons, BDNF control 19.5.
The mark [2] stands for this setting: BDNF-induced nuclear Arc expression, primary cortical neurons, chemogenomic screen.

The structures appear in SMILES notation. Where a name gives a salt, the structure may show the parent alone. Read-outs that look alike come from different tables or passages of the source. Non-standard residues stand in square brackets, D forms with d. Residues, ends and D or L forms follow the SMILES beside them. dTrp(2-Me) = Cc1[nH]c2ccccc2c1C[C@@H](N)C(=O)O

For `NC(=O)OCC(COC(N)=O)c1ccccc1` [Felbamate], the “Percentage of cell with nuclear Arc immunostaining above 2σ threshold” value (“Percentage of cell” for short) under setting [1] was determined as 14.3%.

Regarding `O=C(COc1ccc(Cl)cc1)N1CCN(Cc2ccc3c(c2)OCO3)CC1` [Fipexide], the “Fold-change — Normalized to DMSO control (BDNF)” value (“Fold-change — Normalized” for short) stood at 2.1 fold. In addition, under setting [1], the “Percentage of cell” value is recorded as 41.7%.

`Cc1c(-c2ccccc2)oc2c(C(=O)OCCN3CCCCC3)cccc2c1=O` [Flavoxate]: the “Percentage of cell” value under setting [2] is 3.1%.

As for `CCOC(=O)c1ncn2c1CN(C)C(=O)c1cc(F)ccc1-2` [Flumazenil], the “Fold-change — Normalized” value came out at 1.6 fold. The “Percentage of cell” value under setting [1] stood at 32.1%.

With `OCCN1CCN(CCCN2c3ccccc3Sc3ccc(C(F)(F)F)cc32)CC1` [Fluphenazine], the “Percentage of cell” value under setting [2] was 0.3%.

As for `COCCCC/C(=N\OCCN)c1ccc(C(F)(F)F)cc1` [Fluvoxamine], the “Percentage of cell” value under setting [2] is 8.5%.

As for `C=C[C@@]1(C)CC(=O)[C@]2(O)[C@@]3(C)[C@@H](O)CCC(C)(C)[C@@H]3[C@H](O)[C@H](OC(C)=O)[C@@]2(C)O1` [Forskolin], the “Fold-change — Normalized” value is 1.5 fold. The “Percentage of cell” value under setting [1] was 29.3%.

For the molecule `CC1=NN=C(c2ccc(N)cc2)c2cc3c(cc2C1)OCO3` [GYKI-52466], the “Percentage of cell” value under setting [1] is 12.0%.

In the case of `CNC(=O)N1N=C(c2ccc(N)cc2)c2cc3c(cc2CC1C)OCO3` (stereo not shown) [GYKI-53655], the “Fold-change — Normalized” value was 1.8 fold. The “Percentage of cell” value under setting [1] was found to be 35.7%.

Regarding `NCC1(CC(=O)O)CCCCC1` [Gabapentin], the “Percentage of cell” value came out at 9.0%.

`Oc1noc2c1CCNC2` [Gaboxadol]: the “Percentage of cell” value came out at 13.6%.

Consider `COc1ccc2c3c1O[C@H]1C[C@@H](O)C=C[C@@]31CCN(C)C2` [Galantamine], for which the “Percentage of cell” value worked out at 4.2%.

In the case of `CC(=O)[C@H]1CC[C@H]2[C@@H]3CC[C@H]4C[C@](C)(O)CC[C@]4(C)[C@H]3CC[C@]12C` [Ganaxolone], the “Percentage of cell” value is 22.6% and the “Fold-change — Normalized” value is reported as 1.2 fold.

Regarding `O=c1c(-c2ccc(O)cc2)coc2cc(O)cc(O)c12` [Genistein], the “Fold-change — Normalized” value worked out at 1.6 fold. In addition, the “Percentage of cell” value under setting [1] came out at 31.7%.

Take `CNC(C)C1CCC(N)C(OC2C(N)CC(N)C(OC3OCC(C)(O)C(NC)C3O)C2O)O1` (stereo not shown) [Gentamicin]: the “Percentage of cell” value under setting [2] is listed as 10.3%.

As to `C[C@@H]1C(=O)O[C@H]2C[C@@]34[C@H]5C[C@@H](C(C)(C)C)[C@]36[C@@H](OC(=O)[C@@H]6O)O[C@@]4(C(=O)O5)[C@]21O` [Ginkgolide A], under setting [1], the “Percentage of cell” value is recorded as 19.3%.

Regarding `N=C(N)NC(=O)Cc1c(Cl)cccc1Cl` [Guanfacine hydrochloride], the “Fold-change — Normalized” value amounted to 1.1 fold. Moreover, the “Percentage of cell” value under setting [1] is 20.9%.

Take `COc1ccc2c3c([nH]c2c1)C(C)=NCC3` [Harmaline]: the “Percentage of cell” value is recorded as 28.8% and the “Fold-change — Normalized” value amounted to 1.5 fold.

For the molecule `Cc1nccc2c1[nH]c1ccccc12` [Harmane], the “Percentage of cell” value turned out to be 38.8% and the “Fold-change — Normalized” value was 2.0 fold.

Turning to `Cc1[nH]c2ccccc2c1C[C@@H](NC(=O)[C@@H](N)Cc1cnc[nH]1)C(=O)N[C@@H](C)C(=O)N[C@@H](Cc1c[nH]c2ccccc12)C(=O)N[C@H](Cc1ccccc1)C(=O)N[C@@H](CCCCN)C(N)=O` [Hexarelin] (H-H[dTrp(2-Me)]AW[dF]K-NH2), the “Fold-change — Normalized” value is listed as -1.1 fold. Further, under setting [1], the “Percentage of cell” value is on record as 17.9%.

Regarding `C/C=C1\[C@H]2C=C(C)C[C@]1(N)c1ccc(=O)[nH]c1C2` [Huperzine A], the “Percentage of cell” value under setting [1] amounted to 14.8%.

In the case of `Nc1c2c(nc3ccccc13)CCCC2O` (stereo not shown) [Hydroxytacrine], the “Fold-change — Normalized” value stood at 1.9 fold. Also, the “Percentage of cell” value under setting [1] was 36.9%.

Regarding `OCCOCCN1CCN(C(c2ccccc2)c2ccc(Cl)cc2)CC1` (stereo not shown) [Hydroxyzine dihydrochloride], the “Fold-change — Normalized” value was 1.4 fold. In addition, the “Percentage of cell” value under setting [1] worked out at 27.2%.

As to `CC1Nc2ccc(Cl)cc2S(=O)(=O)N1` (stereo not shown) [IDRA-21], the “Fold-change — Normalized” value is recorded as -1.6 fold. The “Percentage of cell” value under setting [1] is 12.2%.

As to `Cn1cc(C2=C(c3coc4ccccc34)C(=O)NC2=O)c2cc(Br)ccc21` [ING-135], the “Percentage of cell” value stood at 34.1% and the “Fold-change — Normalized” value is recorded as 1.7 fold.

Consider `O=C(O)c1ccc(O)c2ncccc12` [IOX1], for which the “Fold-change — Normalized” value was found to be 2.3 fold. Further, the “Percentage of cell” value under setting [1] was 44.2%.

`O=C(O)CNC(=O)c1c(O)c2ccccc2n(Cc2ccccc2)c1=O` [IOX2]: the “Fold-change — Normalized” value is recorded as 2.3 fold. For the same molecule, the “Percentage of cell” value under setting [1] turned out to be 45.4%.

For the molecule `CC(C)(N)C(=O)N[C@H](COCc1ccccc1)C(=O)N1CCC2(CC1)CN(S(C)(=O)=O)c1ccccc12` [Ibutamoren], the “Percentage of cell” value under setting [2] turned out to be 7.1%.

`COc1ccc(-c2oc3c(CC=C(C)C)c(O[C@@H]4O[C@H](CO)[C@@H](O)[C@H](O)[C@H]4O)cc(O)c3c(=O)c2O[C@@H]2O[C@@H](C)[C@H](O)[C@@H](O)[C@H]2O)cc1` [Icariin]: the “Fold-change — Normalized” value came to 2.2 fold. For the same molecule, under setting [1], the “Percentage of cell” value is 43.8%.

For `Cl.c1ccc2c(c1)OCC(C1=NCCN1)O2` (stereo not shown) [Idazoxan hydrochloride, RX 781094], the “Fold-change — Normalized” value stood at 1.2 fold. In addition, the “Percentage of cell” value under setting [1] is reported as 24.1%.

As for `COc1cc(C(C)=O)ccc1OCCCN1CCC(c2noc3cc(F)ccc23)CC1` [Iloperidone], under setting [2], the “Percentage of cell” value stood at 8.3%.

Consider `CNC1CC(c2ccc(Cl)c(Cl)c2)c2ccccc21` (stereo not shown) [Indatraline], for which the “Percentage of cell” value is 0.0%.

In the case of `O=C1c2ccccc2S(=O)(=O)N1CCCCN1CCN(c2ncccn2)CC1` [Ipsapirone], the “Fold-change — Normalized” value is given as 1.4 fold. The “Percentage of cell” value under setting [1] is 27.4%.

For the molecule `Cc1cc(C(=O)NNCc2ccccc2)no1` [Isocarboxazid], the “Fold-change — Normalized” value was determined as 1.1 fold. Also, the “Percentage of cell” value under setting [1] was found to be 21.2%.

As for `COc1ccc(C(=O)NCc2ccc(OCCN(C)C)cc2)cc1OC.Cl` [Itopride hydrochloride], the “Percentage of cell” value came out at 23.8% and the “Fold-change — Normalized” value is reported as 1.2 fold.

For the molecule `O=c1c(O)c(-c2ccc(O)cc2)oc2cc(O)cc(O)c12` [Kaempferol], the “Percentage of cell” value under setting [2] was 4.0%.

`COC1=CC(=O)O[C@@H](/C=C/c2ccc3c(c2)OCO3)C1` [Kavahin]: the “Percentage of cell” value was 36.5% and the “Fold-change — Normalized” value is 1.9 fold.

Regarding `COC1=CC(=O)O[C@@H](/C=C/c2ccccc2)C1` [Kavain], the “Percentage of cell” value stood at 34.3% and the “Fold-change — Normalized” value was 1.8 fold.

Consider `O=C(c1ccc(F)cc1)C1CCN(CCn2c(=O)[nH]c3ccccc3c2=O)CC1` [Ketanserin], for which the “Fold-change — Normalized” value came to 1.0 fold. Further, the “Percentage of cell” value under setting [1] came to 20.4%.

`O=C(c1ccccc1)c1ccc2n1CCC2C(=O)O` (stereo not shown) [Ketorolac]: the “Fold-change — Normalized” value was found to be 1.9 fold. Also, under setting [1], the “Percentage of cell” value was 36.8%.

Take `CN1CCC(=C2c3ccccc3CC(=O)c3sccc32)CC1` [Ketotifen]: under setting [1], the “Percentage of cell” value turned out to be 12.3%.

With `COC[C@@H](NC(C)=O)C(=O)NCc1ccccc1` [Lacosamide], the “Percentage of cell” value was determined as 6.7%.

As for `Nc1nnc(-c2cccc(Cl)c2Cl)c(N)n1` [Lamotrigine], the “Percentage of cell” value under setting [2] was 4.8%.

Regarding `Cc1ccc2c(c1)c1c(n2CCc2ccc(C)nc2)CCN(C)C1` [Latrepirdine], the “Fold-change — Normalized” value amounted to 1.8 fold. The “Percentage of cell” value under setting [1] is 34.3%.

In the case of `CC[C@@H](C(N)=O)N1CCCC1=O` [Levetiracetam], under setting [2], the “Percentage of cell” value is reported as 7.9%.

Consider `C[N+](C)(C)C[C@H](O)CC(=O)[O-]` [Levocarnitine], for which the “Percentage of cell” value under setting [2] is recorded as 10.1%.

For the molecule `CCN1CCC[C@H]1CNC(=O)c1cc(S(N)(=O)=O)ccc1OC` [Levosulpiride], the “Fold-change — Normalized” value is reported as 1.4 fold. Under setting [1], the “Percentage of cell” value was 28.2%.

On to `CN1CCN(C2=Nc3ccccc3Oc3ccc(Cl)cc32)CC1` [Loxapine], for which the “Fold-change — Normalized” value amounted to 1.1 fold. Also, the “Percentage of cell” value under setting [1] was found to be 21.2%.
